How the values were obtained:
[1] = Cytotoxic concentration (CC50), MTS; format: cell-based; conditions: African green monkey, Vero cells
Description: (§1) Cytotoxic concentrations (CC50) were also studied using Vero cells. Briefly, the 10^4 cells were seeded into each well of 96-well plates. After an overnight incubation, phenolic lipids were serially diluted in DMSO to the final concentrations as follows; 25, 50, 100, 200, 300, 400, and 500 µM. Each concentration was performed in quadruplicates. DMSO at 1% was used as a mock treatment referring to 100% cell viability. Cells were incubated for 48 h before cell viability was accessed using CellTiler 96® Aqueous One Solution Cell Proliferation Assay kit (Promega, Wisconsin, USA). Non-linear regression analysis was used to determine cytotoxic concentrations (CC50) of each experiment.

[2] = Cytotoxic concentration (CC50); format: cell-based; conditions: human
Description: Next, the compound mixture were further purified and synthesized into saturated (C15:0), monoene (C15:1), diene (C15:2), and triene (C15:3) as described in materials and methods. Toxicities were analyzed and results were calculated to percent viability and CC50 were analyzed using non-linear regression curve (Table 1). […] Cardanol triene was insoluble in DMSO, therefore the compound was excluded from this study. It could be inferred that the polyunsaturated hydrocarbon may involve in stabilizing the cell membrane. […] Moreover, we further explored the CC50 of cardol triene in other cell lines to verify its protective effect. Three human-derived cell lines (THP-1, HEK-293, and HepG2) were used to co-incubate with cardol triene and cardol mixture (73% diene and 27% triene).
as §1, with “experiment. Results were derived from three independent experiments and reported as means and standard error of the means (SEM).” for “experiment.”

DENV3 (16562) = assay: Efficacy (EC50) in infected Vero cells; format: cell-based; conditions: Dengue virus
DENV2 = assay: Attachment inhibition study; format: cell-based, Dengue virus
Description: Since dengue envelope protein was the key factor to receptor-binding, endocytosis, and fusion, we asked the question whether the compound would mainly neutralize the virion, inhibit the receptor binding, or inhibit endosomal fusion. Cardol triene at 10 µM was then co-incubated with DENV2 before, during, and after infection to Vero cells (Fig. 6A). […] Therefore, the major target was most likely at a pH-dependent endosomal fusion. […] However, the major post-infection inhibition required further investigations.
Vero (5 × 10^4) cells were seeded into 24-well plates as previously described. DENV2 (M.O.I. of 1) was diluted in ice-cold MEM with 1% fetal bovine serum[42] and was allowed to adsorb on the cells for 1 h with continuous rocking. Cardol triene (10 µM) was prepared in DMSO and was mixed with DENV2 (M.O.I. of 1) before adsorption for 1 h (pre-attachment). Cardol triene (10 µM) was also mixed with DENV2 (M.O.I. of 1) and immediately applied to the cells (co-attachment). Last, cardol triene was added to the cells after 1 h DENV2 adsorption (post-attachment). The experiments were incubated for 2 days at 37 °C. Intracellular viral RNA was determined from cell lysate using RT-qPCR and infectious virion was determined using plaque titration of the supernatant. DMSO was added to the experiment as a no-inhibition control. Means and standard error of the means (SEM) of three independent experiments were noted.

[3] = tested on: BHK-21/DENV2 replicon cells; assay: Replicon cell viability, MTS assay; format: cell-based; conditions: 10 µM and 20 µM, 72 h
Description: We analyzed the replication inhibition using BHK-21/DENV2 replicon cells stably expressed the non-structural proteins. Cardol triene at 10 µM and 20 µM were added to the replicon cells for 72 h and the replication inhibition was accessed by RT-qPCR of DENV2 NS1. Ribavirin, a known inhibitor of flaviviral replication, was used as a positive inhibition control. […] Replicon cell viability under cardol triene treatment was also analyzed using an MTS assay. […] Therefore, we concluded that cardol triene inhibited DENV RNA replicon replication, potentially in dose-dependent manner.
Figure 7 Replicon inhibition study. (A) DENV2/BHK-21 replicon (5 × 10^4 cells) were treated with cardol triene or ribavirin for 72 h. Percent inhibition was calculated from RT-qPCR of cell lysate. (B) Percent DENV2/BHK-21 replicon cell viability at 72 h under 10 and 20 µM cardol triene. Error bars represented standard error of means (SEM) from three independent experiments.

## C=CC/C=C/C/C=C/CCCCCCCc1cc(O)cc(O)c1 [Cardol triene, 5-[8(Z), 11(Z), 14-pentadecatrienyl]resorcinol]
[1]
  CC50 at 48 h: 207 ± 5.24 µM
[2]; THP-1 cells
  CC50: 148 ± 3.78 µM
[2]; HEK-293 cells
  CC50: 92.8 ± 3.93 µM
[2]; HepG2 cells
  CC50: 140 ± 8.44 µM
DENV3 (16562)
  EC50: 8.98 ± 1.77 µM
DENV2; 10 µM, post-infection, RT-qPCR
  inhibition of intracellular RNA: 87.00 ± 6.43%
DENV2; 10 µM, pre-incubation and co-infection
  inhibition of infectious virions: moderate inhibition
DENV2; Dengue virus, DENV2, post-infection, plaque titration, read-out: inhibition of infectious virion
  inhibition at 10 µM: 91.7 ± 4.53%
[3]
  replicon cell viability: did not have effect on cell viability
